# What was measured:
# [1] = system: S. aureus USA300 LAC biofilm; assay: Mouse keratitis model, MRSA biofilm on contact lens; format: in vivo; settings: 1.56 mg/mL topical
# Procedure: The contact lenses were cut into discs with a diameter of 3.5 mm and placed in a 96-well plate. The discs were soaked with 150 μL of MH medium overnight. Then the discs were transferred to a new 96-well plate and 150 μL of S. aureus USA300 LAC suspension (10^5 CFU/mL in MH medium) was added into corresponding wells. The plate was incubated at 37 °C with shaking at 100 rpm. After 2 h incubation, the suspension was aspirated and the lenses were washed with PBS to remove any nonadherent cells, followed by the addition of 150 μL of fresh MH medium. The plate containing the contact lenses with adhered cells was incubated at 37 °C with shaking at 100 rpm for 18 h to allow biofilm formation.
# Male balb/c mice (22–24 g) were intraperitoneally injected with cyclophosphamide (150 mg/kg at 4 days and 100 mg/kg at 1 day before inducing keratitis) for immunosuppression. […] In addition, 0.5% tetracaine hydrochloride eye drops were used as topical anesthesia and then a 2 mm-diameter filter paper disc containing 2 μL of 99% 1-heptanol was placed on the center of the cornea for 15 min. […] All mice were killed and the eyeballs of each mouse were collected immediately 30 min after the last treatment, followed by the quantitative analysis of bacterial burden.
# [2] = system: S. aureus USA300 biofilm formation; assay: Inhibition study on biofilm formation; format: cell-based, Staphylococcus aureus
# Procedure: The plate was incubated at 37 °C for 24 h, and then the culture medium was removed, washed with PBS once, followed by adding 100 µL MTT solution (0.5 mg/mL) into the corresponding well. After further incubation at 37 °C for 4 h in the dark, the MTT solution was removed. An aliquot of 100 μL DMSO was added to each well to solubilize the purple solid and then the OD value was collected at 570 nm on a microplate reader. Wells containing inoculum and without antibacterial agents were used as the positive control; wells containing only MH medium were used as the blank. The percentage of surviving cells within biofilm was calculated from4 %cellviability=A570polymer-A570blank/A570control-A570blank×100
# The test was independently repeated at least three times.
# [3] = system: S. haemolyticus 0202; assay: Mouse peritonitis model, CFU in organs, blood and IP fluid, S. haemolyticus; format: in vivo; settings: Figure 6f
# Procedure: (§1) This infection model was conducted according to the previously reported method with slight modification. Female ICR mice (21–24 g) were used for MRSA-infected peritonitis model. Mice were infected by intraperitoneal administration of 0.2 mL of S. aureus USA300 LAC in saline (7.5 × 10^8 CFU/mL) supplemented with 5% mucin. […] Once the infected mice died, peritoneal lavage was performed by injecting 3.0 mL of saline into the peritoneal cavity and massaging the abdomen. Subsequently, the abdomen was opened and peritoneal fluid was recovered from the abdominal cavity for analysis. Blood samples were collected through cardiac puncture for analysis of CFU/mL. Then, different organs including the heart, liver, spleen, lung, and kidney were removed and homogenized in 0.1% TX-100 solution. The homogenate was serially diluted for plating on LB agar. After incubation at 37 °C for 14 h, the number of colonies on the plate was counted to calculate the bacteria burden. Surviving mice were euthanized at 48 h after infection. The blood, peritoneal fluid, and organs were collected for the determination of bacterial colonies. […] For the pretreatment group, mice were sacrificed and tissues were harvested to determine the CFU at 1 h post infection.
# For experiments of S. epidermidis and S. haemolyticus infections, female ICR mice (22–24 g) were rendered neutropenic by treatment with 150 and 100 mg/kg of cyclophosphamide intraperitoneally at 4 days and 1 day prior to infection. Mice were infected by intraperitoneal administration of 0.2 mL of S. epidermidis 9397 (5.1 × 10^9 CFU/mL) or S. haemolyticus 0202 (2.6 × 10^9 CFU/mL) in saline. Other experiment conditions were similar to those in MRSA peritonitis model.
# [4] = system: S. aureus USA300 LAC; assay: Mouse peritonitis model, CFU in organs, blood and IP fluid, MRSA; format: in vivo; settings: Figure 6d
# Procedure: as §1
structure (smiles),measurement,setting,value
CN[C@H](CC(C)C)C(=O)N[C@H]1C(=O)N[C@@H](CC(N)=O)C(=O)N[C@H]2C(=O)N[C@H]3C(=O)N[C@H](C(=O)N[C@H](C(=O)O)c4cc(O)cc(O)c4-c4cc3ccc4O)[C@H](O)c3ccc(c(Cl)c3)Oc3cc2cc(c3O[C@@H]2O[C@H](CO)[C@@H](O)[C@H](O)[C@H]2O[C@H]2C[C@](C)(N)[C@H](O)[C@H](C)O2)Oc2ccc(cc2Cl)[C@H]1O [Vancomycin],reduction of the bacterial load of each eye of the mouse,[1],ineffective
same,concentration required to inhibit the formation of S. aureus biofilm,[2],2 × MIC
same,Log10(CFU/mL IP fluid),[3]; individual mouse 1 of 6,3.226 Log10(CFU/mL)
same,Log10(CFU/mL IP fluid),[3]; individual mouse 2 of 6,4.392 Log10(CFU/mL)
same,Log10(CFU/mL IP fluid),[3]; individual mouse 3 of 6,3.853 Log10(CFU/mL)
same,Log10(CFU/mL IP fluid),[3]; individual mouse 4 of 6,4.647 Log10(CFU/mL)
same,Log10(CFU/mL IP fluid),[3]; individual mouse 5 of 6,4.595 Log10(CFU/mL)
same,Log10(CFU/mL IP fluid),[3]; individual mouse 6 of 6,4.235 Log10(CFU/mL)
same,Log10(CFU/mL Blood),[3]; individual mouse 1 of 6,3.398 Log10(CFU/mL)
same,Log10(CFU/mL Blood),[3]; individual mouse 2 of 6,3.213 Log10(CFU/mL)
same,Log10(CFU/mL Blood),[3]; individual mouse 3 of 6,2.602 Log10(CFU/mL)
same,Log10(CFU/mL Blood),[3]; individual mouse 4 of 6,3.336 Log10(CFU/mL)
same,Log10(CFU/mL Blood),[3]; individual mouse 5 of 6,2.62 Log10(CFU/mL)
same,Log10(CFU/mL Blood),[3]; individual mouse 6 of 6,0 Log10(CFU/mL)
same,Log10(CFU/g Heart),[3]; individual mouse 1 of 6,4.437 Log10(CFU/g)
same,Log10(CFU/g Heart),[3]; individual mouse 2 of 6,5.504 Log10(CFU/g)
same,Log10(CFU/g Heart),[3]; individual mouse 3 of 6,4.593 Log10(CFU/g)
same,Log10(CFU/g Heart),[3]; individual mouse 4 of 6,5.198 Log10(CFU/g)
same,Log10(CFU/g Heart),[3]; individual mouse 5 of 6,4.862 Log10(CFU/g)
same,Log10(CFU/g Heart),[3]; individual mouse 6 of 6,5.445 Log10(CFU/g)
same,Log10(CFU/g Kidney),[3]; individual mouse 1 of 6,4.477 Log10(CFU/g)
same,Log10(CFU/g Kidney),[3]; individual mouse 2 of 6,5.326 Log10(CFU/g)
same,Log10(CFU/g Kidney),[3]; individual mouse 3 of 6,5 Log10(CFU/g)
same,Log10(CFU/g Kidney),[3]; individual mouse 4 of 6,5.151 Log10(CFU/g)
same,Log10(CFU/g Kidney),[3]; individual mouse 5 of 6,5.103 Log10(CFU/g)
same,Log10(CFU/g Kidney),[3]; individual mouse 6 of 6,6.713 Log10(CFU/g)
same,Log10(CFU/g Liver),[3]; individual mouse 1 of 6,4.477 Log10(CFU/g)
same,Log10(CFU/g Liver),[3]; individual mouse 2 of 6,5.908 Log10(CFU/g)
same,Log10(CFU/g Liver),[3]; individual mouse 3 of 6,4.978 Log10(CFU/g)
same,Log10(CFU/g Liver),[3]; individual mouse 4 of 6,5.097 Log10(CFU/g)
same,Log10(CFU/g Liver),[3]; individual mouse 5 of 6,5.108 Log10(CFU/g)
same,Log10(CFU/g Liver),[3]; individual mouse 6 of 6,5.286 Log10(CFU/g)
same,Log10(CFU/g Lung),[3]; individual mouse 1 of 6,5.45 Log10(CFU/g)
same,Log10(CFU/g Lung),[3]; individual mouse 2 of 6,5.572 Log10(CFU/g)
same,Log10(CFU/g Lung),[3]; individual mouse 3 of 6,6.099 Log10(CFU/g)
same,Log10(CFU/g Lung),[3]; individual mouse 4 of 6,5.247 Log10(CFU/g)
same,Log10(CFU/g Lung),[3]; individual mouse 5 of 6,5.56 Log10(CFU/g)
same,Log10(CFU/g Lung),[3]; individual mouse 6 of 6,6.002 Log10(CFU/g)
same,Log10(CFU/g Spleen),[3]; individual mouse 1 of 6,6.652 Log10(CFU/g)
same,Log10(CFU/g Spleen),[3]; individual mouse 2 of 6,7.228 Log10(CFU/g)
same,Log10(CFU/g Spleen),[3]; individual mouse 3 of 6,6.728 Log10(CFU/g)
same,Log10(CFU/g Spleen),[3]; individual mouse 4 of 6,6.799 Log10(CFU/g)
same,Log10(CFU/g Spleen),[3]; individual mouse 5 of 6,6.226 Log10(CFU/g)
same,Log10(CFU/g Spleen),[3]; individual mouse 6 of 6,6.995 Log10(CFU/g)
same,Log10(CFU/mL IP fluid),[4]; individual mouse 1 of 6,3.724 Log10(CFU/mL)
same,Log10(CFU/mL IP fluid),[4]; individual mouse 2 of 6,3.912 Log10(CFU/mL)
same,Log10(CFU/mL IP fluid),[4]; individual mouse 3 of 6,2.845 Log10(CFU/mL)
same,Log10(CFU/mL IP fluid),[4]; individual mouse 4 of 6,3.255 Log10(CFU/mL)
same,Log10(CFU/mL IP fluid),[4]; individual mouse 5 of 6,3.595 Log10(CFU/mL)
same,Log10(CFU/mL IP fluid),[4]; individual mouse 6 of 6,1.824 Log10(CFU/mL)
same,Log10(CFU/mL Blood),[4]; individual mouse 1 of 6,1.824 Log10(CFU/mL)
same,Log10(CFU/mL Blood),[4]; individual mouse 2 of 6,3.213 Log10(CFU/mL)
same,Log10(CFU/mL Blood),[4]; individual mouse 3 of 6,3.885 Log10(CFU/mL)
same,Log10(CFU/mL Blood),[4]; individual mouse 4 of 6,1.523 Log10(CFU/mL)
same,Log10(CFU/mL Blood),[4]; individual mouse 5 of 6,2.222 Log10(CFU/mL)
same,Log10(CFU/mL Blood),[4]; individual mouse 6 of 6,0 Log10(CFU/mL)
same,Log10(CFU/g Heart),[4]; individual mouse 1 of 6,0 Log10(CFU/g)
same,Log10(CFU/g Heart),[4]; individual mouse 2 of 6,2.523 Log10(CFU/g)
same,Log10(CFU/g Heart),[4]; individual mouse 3 of 6,2.824 Log10(CFU/g)
same,Log10(CFU/g Heart),[4]; individual mouse 4 of 6,2.824 Log10(CFU/g)
same,Log10(CFU/g Heart),[4]; individual mouse 5 of 6,3 Log10(CFU/g)
same,Log10(CFU/g Heart),[4]; individual mouse 6 of 6,0 Log10(CFU/g)
same,Log10(CFU/g Kidney),[4]; individual mouse 1 of 6,3.222 Log10(CFU/g)
same,Log10(CFU/g Kidney),[4]; individual mouse 2 of 6,4.951 Log10(CFU/g)
same,Log10(CFU/g Kidney),[4]; individual mouse 3 of 6,4.845 Log10(CFU/g)
same,Log10(CFU/g Kidney),[4]; individual mouse 4 of 6,2.824 Log10(CFU/g)
same,Log10(CFU/g Kidney),[4]; individual mouse 5 of 6,2.523 Log10(CFU/g)
same,Log10(CFU/g Kidney),[4]; individual mouse 6 of 6,4.247 Log10(CFU/g)
same,Log10(CFU/g Liver),[4]; individual mouse 1 of 6,3.125 Log10(CFU/g)
same,Log10(CFU/g Liver),[4]; individual mouse 2 of 6,4.501 Log10(CFU/g)
same,Log10(CFU/g Liver),[4]; individual mouse 3 of 6,3.477 Log10(CFU/g)
same,Log10(CFU/g Liver),[4]; individual mouse 4 of 6,4.398 Log10(CFU/g)
same,Log10(CFU/g Liver),[4]; individual mouse 5 of 6,3.699 Log10(CFU/g)
same,Log10(CFU/g Liver),[4]; individual mouse 6 of 6,3.699 Log10(CFU/g)
same,Log10(CFU/g Lung),[4]; individual mouse 2 of 6,4.23 Log10(CFU/g)
same,Log10(CFU/g Lung),[4]; individual mouse 3 of 6,3.125 Log10(CFU/g)
same,Log10(CFU/g Lung),[4]; individual mouse 5 of 6,3 Log10(CFU/g)
same,Log10(CFU/g Lung),[4]; individual mouse 6 of 6,3 Log10(CFU/g)
same,Log10(CFU/g Spleen),[4]; individual mouse 1 of 6,3.426 Log10(CFU/g)
same,Log10(CFU/g Spleen),[4]; individual mouse 2 of 6,4.689 Log10(CFU/g)
same,Log10(CFU/g Spleen),[4]; individual mouse 3 of 6,3.885 Log10(CFU/g)
same,Log10(CFU/g Spleen),[4]; individual mouse 4 of 6,4.404 Log10(CFU/g)
same,Log10(CFU/g Spleen),[4]; individual mouse 5 of 6,4.222 Log10(CFU/g)
same,Log10(CFU/g Spleen),[4]; individual mouse 6 of 6,4.204 Log10(CFU/g)

# From publication PMC8501045, “Addressing MRSA infection and antibacterial resistance with peptoid polymers” (Nature Communications, 2021)
